Test results as given in article PMC5218480 (PLoS ONE, 2017).

Tested on: MV-4-11 cells
Assay: Gene expression microarray analysis (Affymetrix PrimeView) and GSEA
Type: cell-based, human
Design: RFU PODN (11730768_x_at) / Fold change /veh PODN (11730768_x_at) / RFU LINC00158 (11744669_a_at) / Fold change /veh LINC00158 (11744669_a_at) / RFU DUSP10 (11751237_a_at) / Fold change /veh DUSP10 (11751237_a_at) / RFU ID3 (11757404_x_at) / Fold change /veh ID3 (11757404_x_at) / RFU PLEKHG5 (11737974_s_at) / Fold change /veh PLEKHG5 (11737974_s_at) / RFU LRRC4B (11730491_at) / Fold change /veh LRRC4B (11730491_at) / RFU GIMAP4 (11747438_a_at) / Fold change /veh GIMAP4 (11747438_a_at) / RFU KRT8 (11758183_x_at) / Fold change /veh KRT8 (11758183_x_at) / RFU CNN1 (11734310_a_at) / Fold change /veh CNN1 (11734310_a_at) / RFU VPS37D (11726825_at) / Fold change /veh VPS37D (11726825_at) / RFU C10orf10 (11716522_x_at) / Fold change /veh C10orf10 (11716522_x_at) / RFU KIR2DL2 /// KIR2DL4 /// KIR2DL5A /// KIR2DL5B /// KIR2DS1 /// KIR2DS2 /// KIR2DS3 /// KIR2DS4 /// KIR3DL3 /// KIR3DL3 /// KIR3DS1 (11738374_at) / Fold change /veh KIR2DL2 /// KIR2DL4 /// KIR2DL5A /// KIR2DL5B /// KIR2DS1 /// KIR2DS2 /// KIR2DS3 /// KIR2DS4 /// KIR3DL3 /// KIR3DL3 /// KIR3DS1 (11738374_at) / RFU C1QL1 (11718748_at) / Fold change /veh C1QL1 (11718748_at) / RFU TMPRSS4 (11747572_a_at) / Fold change /veh TMPRSS4 (11747572_a_at) / RFU HAMP (11756126_x_at) / Fold change /veh HAMP (11756126_x_at) / RFU RNFT2 (11725882_a_at) / Fold change /veh RNFT2 (11725882_a_at) / RFU NR4A2 (11747474_a_at) / Fold change /veh NR4A2 (11747474_a_at) / RFU ABCC12 (11746883_a_at) / Fold change /veh ABCC12 (11746883_a_at) / RFU TMEM136 (11760407_x_at) / Fold change /veh TMEM136 (11760407_x_at) / RFU CLDN22 /// WWC2 (11732394_at) / Fold change /veh CLDN22 /// WWC2 (11732394_at) / RFU HLA-DPB1 (11760878_x_at) / Fold change /veh HLA-DPB1 (11760878_x_at) / RFU SPINT1 (11716480_a_at) / Fold change /veh SPINT1 (11716480_a_at) / RFU GAP43 (11754022_s_at) / Fold change /veh GAP43 (11754022_s_at) / RFU A4GNT (11735810_at) / Fold change /veh A4GNT (11735810_at) / RFU PRB3 (11715151_x_at) / Fold change /veh PRB3 (11715151_x_at) / RFU TUBB4B (11761932_at) / Fold change /veh TUBB4B (11761932_at) / RFU CAPN14 (11732068_a_at) / Fold change /veh CAPN14 (11732068_a_at) / RFU TMCC2 (11721928_a_at) / Fold change /veh TMCC2 (11721928_a_at) / RFU IRGQ (11745062_a_at) / Fold change /veh IRGQ (11745062_a_at) / RFU FAM174B (11720279_a_at) / Fold change /veh FAM174B (11720279_a_at) / RFU TMPRSS4 (11748680_a_at) / Fold change /veh TMPRSS4 (11748680_a_at) / RFU FAM212B (11763350_a_at) / Fold change /veh FAM212B (11763350_a_at) / RFU PLEKHG5 (11743358_a_at) / Fold change /veh PLEKHG5 (11743358_a_at) / RFU ZSCAN30 (11745921_a_at) / Fold change /veh ZSCAN30 (11745921_a_at) / RFU CMKLR1 (11741424_a_at) / Fold change /veh CMKLR1 (11741424_a_at) / RFU LOC101060620 /// MAPK8IP1 (11723275_at) / Fold change /veh LOC101060620 /// MAPK8IP1 (11723275_at) / RFU SPTSSB (11747773_x_at) / Fold change /veh SPTSSB (11747773_x_at) / RFU PRSS12 (11739890_at) / Fold change /veh PRSS12 (11739890_at) / RFU BIN1 (11741810_x_at) / Fold change /veh BIN1 (11741810_x_at) / RFU WNT11 (11732464_a_at) / Fold change /veh WNT11 (11732464_a_at) / RFU C10orf10 (11716521_a_at) / Fold change /veh C10orf10 (11716521_a_at) / RFU C5orf56 (11738089_at) / Fold change /veh C5orf56 (11738089_at) / RFU CYB561 (11721691_x_at) / Fold change /veh CYB561 (11721691_x_at) / RFU ANKRD19P (11752326_a_at) / Fold change /veh ANKRD19P (11752326_a_at) / RFU OR2T12 /// OR2T33 /// OR2T8 (11738714_s_at) / Fold change /veh OR2T12 /// OR2T33 /// OR2T8 (11738714_s_at) / RFU VCAN (11748164_a_at) / Fold change /veh VCAN (11748164_a_at) / RFU JSRP1 (11732532_at) / Fold change /veh JSRP1 (11732532_at) / RFU KRTAP10-11 (11738290_x_at) / Fold change /veh KRTAP10-11 (11738290_x_at) / RFU MYO3A (11730013_a_at) / Fold change /veh MYO3A (11730013_a_at) / RFU EBF3 (11725865_a_at) / Fold change /veh EBF3 (11725865_a_at) / RFU CAMK2N1 (11719241_x_at) / Fold change /veh CAMK2N1 (11719241_x_at) / RFU C5orf56 (11738088_a_at) / Fold change /veh C5orf56 (11738088_a_at) / RFU OLFML3 (11715873_a_at) / Fold change /veh OLFML3 (11715873_a_at) / RFU LOC100653217 /// NTM (11731650_a_at) / Fold change /veh LOC100653217 /// NTM (11731650_a_at) / RFU MAPK11 (11762145_a_at) / Fold change /veh MAPK11 (11762145_a_at) / RFU FIZ1 (11724087_x_at) / Fold change /veh FIZ1 (11724087_x_at) / RFU OASL (11726364_x_at) / Fold change /veh OASL (11726364_x_at) / RFU SOX15 (11748057_x_at) / Fold change /veh SOX15 (11748057_x_at) / RFU CD79A (11719716_a_at) / Fold change /veh CD79A (11719716_a_at) / RFU HIST1H1D (11736915_at) / Fold change /veh HIST1H1D (11736915_at) / RFU CASKIN2 (11723855_a_at) / Fold change /veh CASKIN2 (11723855_a_at) / RFU LOC730098 (11760151_x_at) / Fold change /veh LOC730098 (11760151_x_at) / RFU OR4N2 (11742367_at) / Fold change /veh OR4N2 (11742367_at) / RFU PRRT2 (11749266_a_at) / Fold change /veh PRRT2 (11749266_a_at) / RFU SNX32 (11753110_a_at) / Fold change /veh SNX32 (11753110_a_at) / RFU CDHR5 (11726645_a_at) / Fold change /veh CDHR5 (11726645_a_at) / RFU RCAN1 (11760418_a_at) / Fold change /veh RCAN1 (11760418_a_at) / RFU FAM167A (11723789_a_at) / Fold change /veh FAM167A (11723789_a_at) / RFU FAM26E (11764081_at) / Fold change /veh FAM26E (11764081_at) / RFU ISYNA1 (11749810_s_at) / Fold change /veh ISYNA1 (11749810_s_at) / RFU ACY1 (11761880_at) / Fold change /veh ACY1 (11761880_at) / RFU 11764098_at / Fold change /veh 11764098_at / RFU SAMD14 (11745864_x_at) / Fold change /veh SAMD14 (11745864_x_at) / RFU NPB (11741838_a_at) / Fold change /veh NPB (11741838_a_at) / RFU TMPRSS6 (11731388_a_at) / Fold change /veh TMPRSS6 (11731388_a_at) / RFU KRTAP10-2 (11738614_at) / Fold change /veh KRTAP10-2 (11738614_at) / RFU ARHGAP8 /// PRR5-ARHGAP8 (11727945_x_at) / Fold change /veh ARHGAP8 /// PRR5-ARHGAP8 (11727945_x_at) / RFU KRTAP5-7 /// NADSYN1 (11734609_at) / Fold change /veh KRTAP5-7 /// NADSYN1 (11734609_at) / RFU RASL12 (11751679_a_at) / Fold change /veh RASL12 (11751679_a_at) / RFU CDKN2B (11736163_a_at) / Fold change /veh CDKN2B (11736163_a_at) / RFU PRF1 (11729649_at) / Fold change /veh PRF1 (11729649_at) / RFU, ZNF638 /// ZNF638-IT1 / Fold change vs veh, ZNF638 /// ZNF638-IT1 / RFU, PANK3 / Fold change vs veh, PANK3 / RFU, SH3YL1 / Fold change vs veh, SH3YL1 / RFU, ZEB2 / Fold change vs veh, ZEB2 / RFU, NRIP1 / Fold change vs veh, NRIP1 / RFU, PTTG1IP / Fold change vs veh, PTTG1IP / RFU, CAPN2 / Fold change vs veh, CAPN2 / RFU, MED14 / Fold change vs veh, MED14 / RFU, SNORA58 / Fold change vs veh, SNORA58 / RFU, C1orf63 / Fold change vs veh, C1orf63 / RFU, LRRFIP1 / Fold change vs veh, LRRFIP1 / RFU, NDUFAF7 / Fold change vs veh, NDUFAF7 / RFU, SLC12A2 / Fold change vs veh, SLC12A2 / RFU, IBTK / Fold change vs veh, IBTK / RFU, ESF1 / Fold change vs veh, ESF1 / Fold change vs veh, TMEM50B / RFU, TAOK1 / Fold change vs veh, TAOK1 / RFU, ACBD3 / Fold change vs veh, ACBD3 / RFU, TMA16 / Fold change vs veh, TMA16 / RFU, RWDD3 / Fold change vs veh, RWDD3 / RFU, BCAT1 / Fold change vs veh, BCAT1 / RFU, EDEM3 / Fold change vs veh, EDEM3 / RFU, TMEM33 / Fold change vs veh, TMEM33 / RFU, WDR75 / Fold change vs veh, WDR75 / RFU, AHCTF1 / Fold change vs veh, AHCTF1 / RFU, TFRC / Fold change vs veh, TFRC / RFU, ZDHHC17 / Fold change vs veh, ZDHHC17 / RFU, NOM1 / Fold change vs veh, NOM1 / RFU, ARL8B / Fold change vs veh, ARL8B / RFU, ZBTB11 / Fold change vs veh, ZBTB11 / RFU, TAMM41 / Fold change vs veh, TAMM41 / RFU, KIAA1704 /// LOC100996395 / Fold change vs veh, KIAA1704 /// LOC100996395 / RFU, ING1 / Fold change vs veh, ING1 / RFU, TRMT61B / Fold change vs veh, TRMT61B / RFU, FUBP3 / Fold change vs veh, FUBP3 / RFU, TP53 / Fold change vs veh, TP53 / RFU, TNKS2 / Fold change vs veh, TNKS2 / RFU, ZFP14 / Fold change vs veh, ZFP14 / RFU, ACTR2 / Fold change vs veh, ACTR2 / RFU, PPP3R1 / Fold change vs veh, PPP3R1 / RFU, PIK3R1 / Fold change vs veh, PIK3R1 / RFU, HNRNPA1 / Fold change vs veh, HNRNPA1 / RFU, RNF170 / Fold change vs veh, RNF170 / RFU, ZNF28 / Fold change vs veh, ZNF28 / RFU, RNGTT / Fold change vs veh, RNGTT / RFU, OGT / Fold change vs veh, OGT / RFU, BRD1 / Fold change vs veh, BRD1 / RFU, MARS / Fold change vs veh, MARS / RFU, ZNF655 / Fold change vs veh, ZNF655 / RFU, FAHD1 / Fold change vs veh, FAHD1 / RFU, BDP1 / Fold change vs veh, BDP1 / RFU, LRRCC1 / Fold change vs veh, LRRCC1 / RFU, ARID1A / Fold change vs veh, ARID1A / RFU, ZNF146 / Fold change vs veh, ZNF146 / RFU, ZNF330 / Fold change vs veh, ZNF330 / RFU, GPN3 / Fold change vs veh, GPN3 / RFU, C9orf123 / Fold change vs veh, C9orf123 / RFU, N4BP2L2 / Fold change vs veh, N4BP2L2 / RFU, ARFIP1 / Fold change vs veh, ARFIP1 / RFU, FAM179B / Fold change vs veh, FAM179B / RFU, BCL10 / Fold change vs veh, BCL10 / RFU, UHRF1BP1L / Fold change vs veh, UHRF1BP1L / RFU, BET1 / Fold change vs veh, BET1 / RFU, CNOT2 / Fold change vs veh, CNOT2 / RFU, ZNF268 / Fold change vs veh, ZNF268 / Fold change vs veh, ZNF507 / RFU, DGCR2 / Fold change vs veh, DGCR2 / RFU, WDSUB1 / Fold change vs veh, WDSUB1 / Fold change vs veh, HSP90B1 /// MIR3652 / RFU, ADSS / Fold change vs veh, ADSS / RFU, GK / Fold change vs veh, GK / RFU, ZNF148 / Fold change vs veh, ZNF148 / RFU, TAF9 / Fold change vs veh, TAF9 / RFU, SLC1A5 / Fold change vs veh, SLC1A5 / RFU, SLMO2 / Fold change vs veh, SLMO2 / RFU, ABCC4 / Fold change vs veh, ABCC4 / RFU, LOC101060439 /// RAP1B / Fold change vs veh, LOC101060439 /// RAP1B / RFU, RFX7 / Fold change vs veh, RFX7 / RFU, GTPBP10 / Fold change vs veh, GTPBP10 / RFU, CNEP1R1 / Fold change vs veh, CNEP1R1 / RFU, BIVM-ERCC5 /// ERCC5 / Fold change vs veh, BIVM-ERCC5 /// ERCC5 / RFU, ILF3 / Fold change vs veh, ILF3 / RFU 11762660_at / Fold change /veh 11762660_at / RFU VCAN (11757783_s_at) / Fold change /veh VCAN (11757783_s_at) / RFU DDX43 (11728927_at) / Fold change /veh DDX43 (11728927_at) / RFU KRT8 (11758188_x_at) / Fold change /veh KRT8 (11758188_x_at) / RFU NKD1 (11759106_at) / Fold change /veh NKD1 (11759106_at) / RFU SRD5A1 (11742802_a_at) / Fold change /veh SRD5A1 (11742802_a_at) / RFU TPSAB1 /// TPSB2 (11721975_s_at) / Fold change /veh TPSAB1 /// TPSB2 (11721975_s_at) / RFU GSTM3 (11746129_a_at) / Fold change /veh GSTM3 (11746129_a_at) / RFU IL23R (11737362_x_at) / Fold change /veh IL23R (11737362_x_at) / RFU TMEM51 (11727254_a_at) / Fold change /veh TMEM51 (11727254_a_at) / RFU PIWIL2 (11732686_x_at) / Fold change /veh PIWIL2 (11732686_x_at) / RFU ORM1 (11744905_x_at) / Fold change /veh ORM1 (11744905_x_at) / RFU CCDC152 (11743942_at) / Fold change /veh CCDC152 (11743942_at) / RFU ECM1 (11717891_a_at) / Fold change /veh ECM1 (11717891_a_at) / RFU IL23R (11748794_a_at) / Fold change /veh IL23R (11748794_a_at) / RFU TNFAIP8L3 (11732012_x_at) / Fold change /veh TNFAIP8L3 (11732012_x_at) / RFU MBOAT4 (11741988_at) / Fold change /veh MBOAT4 (11741988_at) / RFU 11764193_at / Fold change /veh 11764193_at / RFU TMEM53 (11763286_at) / Fold change /veh TMEM53 (11763286_at) / RFU MAGEB2 (11727129_at) / Fold change /veh MAGEB2 (11727129_at) / RFU TMEM200A (11744735_a_at) / Fold change /veh TMEM200A (11744735_a_at) / RFU CCDC152 (11751479_a_at) / Fold change /veh CCDC152 (11751479_a_at) / RFU FAM211A (11726209_a_at) / Fold change /veh FAM211A (11726209_a_at) / RFU RGS16 (11746705_a_at) / Fold change /veh RGS16 (11746705_a_at) / RFU VCAN (11755009_s_at) / Fold change /veh VCAN (11755009_s_at) / RFU RHOB (11743442_s_at) / Fold change /veh RHOB (11743442_s_at) / RFU RGS16 (11720943_a_at) / Fold change /veh RGS16 (11720943_a_at) / RFU RGS16 (11720944_at) / Fold change /veh RGS16 (11720944_at) / RFU, VPS4B / Fold change vs veh, VPS4B / RFU, CREB1 / Fold change vs veh, CREB1 / RFU, DNAJC13 / Fold change vs veh, DNAJC13 / RFU, GNAQ / Fold change vs veh, GNAQ / RFU, CDK5R1 / Fold change vs veh, CDK5R1 / RFU, ZRANB3 / Fold change vs veh, ZRANB3 / RFU, CUL4A / Fold change vs veh, CUL4A / RFU, CCNY / Fold change vs veh, CCNY / RFU, UFL1 / Fold change vs veh, UFL1 / RFU, COG3 / Fold change vs veh, COG3 / RFU, DIAPH2 / Fold change vs veh, DIAPH2 / RFU, SKA2 / Fold change vs veh, SKA2 / RFU, AFF3 / Fold change vs veh, AFF3 / RFU, LMF1 / Fold change vs veh, LMF1 / RFU, IPO11 / Fold change vs veh, IPO11 / RFU, DFFB / Fold change vs veh, DFFB / RFU, FOXP1 / Fold change vs veh, FOXP1 / RFU, CARD8 / Fold change vs veh, CARD8 / RFU, STRN3 / Fold change vs veh, STRN3 / RFU, ADK / Fold change vs veh, ADK / RFU, RASSF2 / Fold change vs veh, RASSF2 / RFU, WIPF1 / Fold change vs veh, WIPF1 / RFU, LARP1B / Fold change vs veh, LARP1B / RFU, RASA1 / Fold change vs veh, RASA1 / RFU, RB1 / Fold change vs veh, RB1 / RFU, PPFIA1 / Fold change vs veh, PPFIA1 / RFU, MAT2A / Fold change vs veh, MAT2A / RFU, CCT5 / Fold change vs veh, CCT5 / RFU, WDR92 / Fold change vs veh, WDR92 / RFU, CUX1 / Fold change vs veh, CUX1 / RFU, TTC7A / Fold change vs veh, TTC7A / RFU, TMEM135 / Fold change vs veh, TMEM135 / RFU, DEPTOR / Fold change vs veh, DEPTOR / RFU, CPM / Fold change vs veh, CPM / RFU, DNAJB6 / Fold change vs veh, DNAJB6 / RFU, CACNA2D3 / Fold change vs veh, CACNA2D3 / RFU, DTX4 / Fold change vs veh, DTX4 / RFU, TFCP2 / Fold change vs veh, TFCP2 / RFU, GMCL1 /// GMCL1P1 / Fold change vs veh, GMCL1 /// GMCL1P1 / RFU, AEBP2 / Fold change vs veh, AEBP2 / RFU, SNHG1 /// SNORD22 /// SNORD25 /// SNORD26 /// SNORD27 /// SNORD28 /// SNORD29 /// SNORD31 / Fold change vs veh, SNHG1 /// SNORD22 /// SNORD25 /// SNORD26 /// SNORD27 /// SNORD28 /// SNORD29 /// SNORD31 / Fold change (Aza/veh), C12orf56 (ProbeSet 11735607_a_at) / Fold change (ACY-1035/veh), C12orf56 (ProbeSet 11735607_a_at) / Fold change (Aza/veh), FGFR1OP (ProbeSet 11751329_s_at) / Fold change (ACY-1035/veh), FGFR1OP (ProbeSet 11751329_s_at) / Fold change (Aza/veh), VPS36 (ProbeSet 11739960_a_at) / Fold change (ACY-1035/veh), VPS36 (ProbeSet 11739960_a_at) / RFU SYPL1 (11715823_x_at) / Fold change /veh SYPL1 (11715823_x_at) / RFU IGFBP7 (11715501_s_at) / Fold change /veh IGFBP7 (11715501_s_at) / RFU REEP3 (11722064_at) / Fold change /veh REEP3 (11722064_at) / RFU IGLL1 (11728026_x_at) / Fold change /veh IGLL1 (11728026_x_at): dose or concentration left out as unconfirmed
Conditions: ProbeSet 11755436_x_at; LIST B

SMILES: Nc1ccc(-c2cccs2)cc1NC(=O)c1ccc2c(c1)cc(C1CC1)n2CCN1CCOCC1 [ACY-1035]
- RFU, ARID1A: 56.79 RFU
